pIC50: −log10 of the molar value.
Assays:
[1] = test system: CDK3 and CDK7; details: cited from earlier work
[2] = test system: non-CDK kinases; details: with the exception of GSK3beta; cited from earlier work
[3] = test system: lung adenocarcinoma (LUAD) cell lines; assay: Proliferation assay (IncuCyte confluency); format: cell-based; details: for proliferation (response) of S3 cell lines compared to the S4 and unassigned cell lines: S3 lines HCC78, HCC827, NCIH1975, NCIH1838, 4 days
Source text: lung adenocarcinoma (LUAD) cell lines were used (HCC78, HCC827, NCIH1975, NCIH1838, NCIH1395, NCIH1833, NCIH1755, ABC1, CALU3). Tests for mycoplasma contamination were negative. Cells were maintained in RPMI 1640 medium supplemented with 10% fetal bovine serum and 1% penicillin-streptomycin.
The media and drugs were replenished every 2-3 days. Continuous cell growth was monitored in 96-well plates every 3 hr for 4 days using the IncuCyte Kinetic Imaging System. The relative confluency was analyzed using IncuCyte software. The reported response percentage for each cell line was calculated as the percent of confluency compared to their DMSO treated counterpart. Proliferation assays were repeated 4 times.

[4] = molecular target: EGFR (Homo sapiens, UniProt P00533); details: cited from earlier work
EGFR, sequence (P00533 25-1210): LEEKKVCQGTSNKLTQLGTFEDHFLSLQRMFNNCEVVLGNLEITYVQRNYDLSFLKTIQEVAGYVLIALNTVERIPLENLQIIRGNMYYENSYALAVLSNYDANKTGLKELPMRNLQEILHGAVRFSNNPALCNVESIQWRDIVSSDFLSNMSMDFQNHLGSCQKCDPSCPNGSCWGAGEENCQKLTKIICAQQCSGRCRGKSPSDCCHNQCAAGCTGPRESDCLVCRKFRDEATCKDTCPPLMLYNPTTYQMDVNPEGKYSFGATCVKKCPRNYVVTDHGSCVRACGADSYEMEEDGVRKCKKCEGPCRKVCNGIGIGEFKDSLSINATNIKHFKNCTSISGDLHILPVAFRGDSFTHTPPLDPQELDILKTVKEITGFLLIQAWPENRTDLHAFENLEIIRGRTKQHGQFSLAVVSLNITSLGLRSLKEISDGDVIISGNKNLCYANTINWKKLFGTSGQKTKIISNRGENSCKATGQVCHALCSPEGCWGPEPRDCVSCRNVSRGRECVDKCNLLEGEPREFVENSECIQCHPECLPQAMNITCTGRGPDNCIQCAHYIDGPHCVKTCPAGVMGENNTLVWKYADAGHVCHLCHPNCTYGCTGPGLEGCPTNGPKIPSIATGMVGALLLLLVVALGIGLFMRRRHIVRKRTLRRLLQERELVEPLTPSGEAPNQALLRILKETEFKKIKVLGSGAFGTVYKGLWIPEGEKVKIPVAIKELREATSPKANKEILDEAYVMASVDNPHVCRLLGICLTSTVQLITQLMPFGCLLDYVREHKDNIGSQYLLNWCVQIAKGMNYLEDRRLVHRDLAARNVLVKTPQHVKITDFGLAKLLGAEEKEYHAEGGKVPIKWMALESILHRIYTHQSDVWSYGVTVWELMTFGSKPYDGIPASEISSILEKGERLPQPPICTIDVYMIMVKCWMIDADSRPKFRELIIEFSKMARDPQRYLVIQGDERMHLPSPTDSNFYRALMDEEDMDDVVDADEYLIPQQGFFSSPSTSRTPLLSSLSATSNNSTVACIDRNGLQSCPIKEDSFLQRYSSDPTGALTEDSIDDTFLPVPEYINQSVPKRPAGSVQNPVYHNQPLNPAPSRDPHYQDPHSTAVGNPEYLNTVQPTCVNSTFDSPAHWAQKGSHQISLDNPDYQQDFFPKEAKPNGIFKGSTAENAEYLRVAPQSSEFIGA

[5] = molecular target: HER-3 (Homo sapiens, UniProt P21860); details: cited from earlier work
[6] = test system: tumor-bearing animal models such as breast, colon, lung cancers, and hepatocellular carcinoma; details: in vivo; cited from earlier work
[7] = molecular target: BLK (Homo sapiens, UniProt P51451); details: in vitro; cited from earlier work
BLK, sequence (P51451 whole entry): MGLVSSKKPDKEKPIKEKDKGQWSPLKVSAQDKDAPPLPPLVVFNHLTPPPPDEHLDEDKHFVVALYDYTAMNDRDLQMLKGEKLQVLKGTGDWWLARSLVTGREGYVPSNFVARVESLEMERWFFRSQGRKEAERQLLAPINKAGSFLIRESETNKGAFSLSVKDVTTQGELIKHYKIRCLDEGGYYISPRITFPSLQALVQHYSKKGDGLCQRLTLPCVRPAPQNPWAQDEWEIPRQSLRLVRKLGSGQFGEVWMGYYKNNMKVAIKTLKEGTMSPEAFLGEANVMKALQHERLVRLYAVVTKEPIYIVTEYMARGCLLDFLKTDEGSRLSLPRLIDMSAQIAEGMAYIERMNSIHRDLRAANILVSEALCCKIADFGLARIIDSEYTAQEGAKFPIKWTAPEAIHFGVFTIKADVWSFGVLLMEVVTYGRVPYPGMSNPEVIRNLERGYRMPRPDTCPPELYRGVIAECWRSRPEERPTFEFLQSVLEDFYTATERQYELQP

[8] = molecular target: HER2 (Homo sapiens, UniProt P04626); details: in vitro; cited from earlier work
HER2, sequence (P04626 23-1255): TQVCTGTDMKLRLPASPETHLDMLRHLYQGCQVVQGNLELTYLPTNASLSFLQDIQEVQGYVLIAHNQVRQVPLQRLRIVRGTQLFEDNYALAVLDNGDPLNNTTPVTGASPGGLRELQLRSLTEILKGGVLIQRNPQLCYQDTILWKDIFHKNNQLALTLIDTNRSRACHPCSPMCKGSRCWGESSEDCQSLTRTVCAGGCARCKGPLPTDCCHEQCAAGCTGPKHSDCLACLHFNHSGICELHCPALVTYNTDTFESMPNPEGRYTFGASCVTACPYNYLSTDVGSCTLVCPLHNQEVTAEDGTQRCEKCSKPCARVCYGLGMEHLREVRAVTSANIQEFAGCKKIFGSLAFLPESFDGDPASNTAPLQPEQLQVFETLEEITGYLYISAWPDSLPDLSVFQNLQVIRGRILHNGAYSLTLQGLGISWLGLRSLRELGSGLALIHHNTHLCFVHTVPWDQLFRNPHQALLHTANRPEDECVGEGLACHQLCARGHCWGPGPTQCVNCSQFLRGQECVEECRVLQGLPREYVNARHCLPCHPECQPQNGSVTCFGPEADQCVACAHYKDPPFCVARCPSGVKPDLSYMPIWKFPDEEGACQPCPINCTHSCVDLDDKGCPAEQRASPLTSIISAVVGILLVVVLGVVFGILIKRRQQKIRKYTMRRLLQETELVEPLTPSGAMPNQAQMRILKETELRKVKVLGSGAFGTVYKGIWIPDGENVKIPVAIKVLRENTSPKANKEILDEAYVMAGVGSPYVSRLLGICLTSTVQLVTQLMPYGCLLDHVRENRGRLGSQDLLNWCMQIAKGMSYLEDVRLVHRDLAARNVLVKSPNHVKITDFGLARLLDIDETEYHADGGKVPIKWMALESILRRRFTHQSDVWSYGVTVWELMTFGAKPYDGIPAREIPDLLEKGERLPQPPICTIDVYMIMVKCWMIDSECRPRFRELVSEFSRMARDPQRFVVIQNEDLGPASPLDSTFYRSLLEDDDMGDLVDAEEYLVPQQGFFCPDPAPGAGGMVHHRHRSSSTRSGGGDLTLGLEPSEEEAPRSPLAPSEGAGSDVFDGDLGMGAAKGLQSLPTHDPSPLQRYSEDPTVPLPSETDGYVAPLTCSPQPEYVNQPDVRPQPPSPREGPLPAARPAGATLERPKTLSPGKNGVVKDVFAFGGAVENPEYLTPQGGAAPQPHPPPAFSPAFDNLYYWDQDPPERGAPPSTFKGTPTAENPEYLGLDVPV

[9] = molecular target: HER4 (Homo sapiens, UniProt Q15303); details: in vitro; cited from earlier work
HER4, sequence (Q15303 26-1308): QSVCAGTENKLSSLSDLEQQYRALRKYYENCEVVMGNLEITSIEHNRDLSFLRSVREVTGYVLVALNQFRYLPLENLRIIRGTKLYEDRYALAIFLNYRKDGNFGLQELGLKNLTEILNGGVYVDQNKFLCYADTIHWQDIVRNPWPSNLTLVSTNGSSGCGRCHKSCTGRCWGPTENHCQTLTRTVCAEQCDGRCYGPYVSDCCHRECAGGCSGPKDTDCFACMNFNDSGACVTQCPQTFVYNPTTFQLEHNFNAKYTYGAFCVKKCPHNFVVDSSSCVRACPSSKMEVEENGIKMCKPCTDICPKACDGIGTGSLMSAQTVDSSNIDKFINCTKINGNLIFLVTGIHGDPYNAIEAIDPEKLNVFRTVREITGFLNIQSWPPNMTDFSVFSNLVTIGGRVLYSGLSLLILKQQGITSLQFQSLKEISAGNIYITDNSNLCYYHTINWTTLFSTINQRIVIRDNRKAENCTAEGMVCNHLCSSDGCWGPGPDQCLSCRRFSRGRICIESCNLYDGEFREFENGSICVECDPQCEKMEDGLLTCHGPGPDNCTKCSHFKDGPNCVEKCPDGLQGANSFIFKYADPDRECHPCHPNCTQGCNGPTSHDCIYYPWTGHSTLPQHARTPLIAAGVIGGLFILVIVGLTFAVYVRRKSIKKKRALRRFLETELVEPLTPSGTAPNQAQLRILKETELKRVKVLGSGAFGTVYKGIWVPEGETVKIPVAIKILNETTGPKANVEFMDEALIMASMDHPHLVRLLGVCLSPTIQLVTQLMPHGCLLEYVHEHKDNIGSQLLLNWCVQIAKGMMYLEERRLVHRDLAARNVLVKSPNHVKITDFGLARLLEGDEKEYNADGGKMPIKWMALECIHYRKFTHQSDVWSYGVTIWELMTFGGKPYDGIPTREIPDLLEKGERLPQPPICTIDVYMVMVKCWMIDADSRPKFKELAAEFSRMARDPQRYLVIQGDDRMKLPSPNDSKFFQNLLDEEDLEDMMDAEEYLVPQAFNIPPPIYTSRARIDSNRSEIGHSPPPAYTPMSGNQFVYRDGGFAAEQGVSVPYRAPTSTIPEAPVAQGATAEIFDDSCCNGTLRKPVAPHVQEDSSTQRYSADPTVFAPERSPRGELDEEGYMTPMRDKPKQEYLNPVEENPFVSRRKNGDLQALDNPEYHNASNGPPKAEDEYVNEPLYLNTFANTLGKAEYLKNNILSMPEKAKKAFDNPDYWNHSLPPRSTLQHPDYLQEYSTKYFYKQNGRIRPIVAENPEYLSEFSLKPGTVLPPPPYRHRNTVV

[10] = test system: mutant forms of EGFR (T790M, L858R, and exon 19 deletion); details: exon 19 deletion vs wild-type; cited from earlier work
[11] = test system: PD-L1; assay: Immunofluorescence staining with anti-PD-L1 antibody; format: cell-based; details: tivantinib-treated cells vs controls; all subtypes; quantified with ImageJ
Experimental: The following antibody was used for immunofluorescence staining—Recombinant Alexa Fluor® 488 Anti-PD-L1 antibody (ab209959). […] Cells were then fixed in 4% paraformaldehyde for 10 min and washed twice in cold PBS. Fluor® 488 Anti-PD-L1 antibody was added for 1 hr incubation in a light protected environment at room temperature followed by staining nuclei with DAPI. Fluorescence images were captured using Invitrogen™ EVOS™ FL Imaging System by Thermo Fisher Scientific. The fluorescent increase was further quantified using ImageJ software.

SMILES: O=C(NC1CCNCC1)c1n[nH]cc1NC(=O)c1c(Cl)cccc1Cl [AT7519]
- potency against other CDKs tested [1]: lower potency
- activity against non-CDK kinases tested [2]: inactive

SMILES: CCNc1cc(N[C@H]2CC[C@H](O)CC2)nc(Nc2ccc3c(ccn3Cc3ccccc3)c2)n1 [CINK4]
- proliferation (response) of S3 cell lines compared to the S4 and unassigned cell lines ([3]; CDK4/6 Inhibitor IV 1.5 μM (CDK4 specific concentration), confluency vs DMSO): significantly lower proliferation (higher response)

SMILES: CNC(=O)c1ccc(-c2cnc3ncc(Cc4ccc5ncccc5c4)n3n2)cc1F [Capmatinib]
- activity against EGFR [4]: ATP-competitive small molecule. Targets - c-Met. Little activity against EGFR and HER- 3.
- activity against HER-3 [5]: ATP-competitive small molecule. Targets - c-Met. Little activity against EGFR and HER- 3.

SMILES: Cc1cccc(-c2nn3c(c2-c2ccnc4ccc(C(N)=O)cc24)CCC3)n1 [Galunisertib]
- antitumor activity [6]: antitumor activity

SMILES: C=CC(=O)Nc1cc(Nc2ncc(C(=O)OC(C)C)c(-c3cn(C)c4ccccc34)n2)c(OC)cc1N(C)CCN(C)C [Mobocertinib]
- pIC50 [7]: > 8.70
- pIC50 [8]: > 8.70
- pIC50 [9]: > 8.70

SMILES: C=CC(=O)Nc1cc(Nc2nccc(-c3cn(C)c4ccccc34)n2)c(OC)cc1N(C)CCN(C)C [Osimertinib]
- concentrations for binding mutant EGFR lower than wild-type [10]: approximately 9 fold

SMILES: CC(=O)c1c(C)c2cnc(Nc3ccc(N4CCNCC4)cn3)nc2n(C2CCCC2)c1=O [Palbociclib]
- proliferation (response) of S3 cell lines compared to the S4 and unassigned cell lines ([3]; Palbociclib 11 nM (CDK4 concentration), confluency vs DMSO): significantly lower proliferation (higher response)
- proliferation at higher doses ([3]; higher doses of palbociclib (CDK4/6 concentration 16 nM), all cell lines): inhibited proliferation in all cell lines

SMILES: O=C1NC(=O)[C@@H](c2cn3c4c(cccc24)CCC3)[C@@H]1c1c[nH]c2ccccc12 [Tivantinib]
- response of S3 compared to the other assigned groups ([3]; Tivantinib 3 μM, 4-day proliferation assay, confluency vs DMSO): significantly increased response
- PD-L1 levels in response to c-MET inhibition [11]: significant increase
